Values of other authors, collected in patent US20060104967A1, “Method of converting the state of proteins” (priority 2004, published 2006).
*1 amine or outer side, *2 acyl side, *3 side chain or, on linkers, in order; H or OH if unused. Where a SMILES comes first, the peptide text is derived from it. Bridges are numbered along the chain shown (N, C = ends). [ ]: non-standard residue; d: D form. Adda = CO[C@@H](Cc1ccccc1)[C@@H](C)/C=C(C)/C=C/[C@H](N[*:1])[C@H](C)C(=O)[*:2]; dAsp(3S-Me) = C[C@H](C(=O)[*:3])[C@@H](N[*:1])C(=O)[*:2]; d(γGlu) = O=C(O)[C@@H](CCC(=O)[*:2])N[*:1]; NMeDha = C=C(NC)C(=O)O

Target: PP2B
Conditions: read-out: Ki values for PP2B, concentrations of inhibitors where the enzyme activity becomes to half

| Structure (SMILES) | Ki |
| --- | --- |
| C=C1C(=O)N[C@H](C)C(=O)N[C@@H](CC(C)C)C(=O)N[C@@H](C(=O)O)[C@H](C)C(=O)N[C@@H](CCCNC(=N)N)C(=O)N[C@@H](/C=C/C(C)=C/[C@H](C)[C@H](Cc2ccccc2)OC)[C@H](C)C(=O)N[C@@H](C(=O)O)CCC(=O)N1C [microcystin LR] (R[Adda][d(γGlu)][NMeDha][dA]L[dAsp(3S-Me)]-OH; lactam N-7) | 0.2 mM |
| C=C1[C@@H](O)[C@@H]2O[C@]3(CC[C@H](/C=C/[C@@H](C)[C@@H]4CC(C)=C[C@@]5(O[C@H](C[C@@](C)(O)C(=O)O)CC[C@H]5O)O4)O3)CC[C@H]2O[C@@H]1[C@@H](O)C[C@H](C)[C@H]1O[C@@]2(CCCCO2)CC[C@H]1C [okadaic acid] | 5 mM |
